Test results published in patent US9592224B2, “Substituted benzothiazoles and therapeutic uses thereof for the treatment of human diseases” (CONSEJO SUPERIOR DE INVESTIGACIONES CIENTÍFICAS, priority 2013, dated 2017).

Assays:
[1] = biological target: T1, recombinant human enzyme CK-1ε (Homo sapiens, UniProt P49674); experiment: Enzyme inhibition assay, Luminometer Kinase-GLO method, CK-1ε; assay type: biochemical; conditions: for IC50: casein substrate, 4 μM ATP, 60 minutes at 30° C., read-out: Inhibitory Concentration 50 (IC50) CK-1ε
T1 construct: purchased Invitrogen
T1 sequence (P49674 whole entry): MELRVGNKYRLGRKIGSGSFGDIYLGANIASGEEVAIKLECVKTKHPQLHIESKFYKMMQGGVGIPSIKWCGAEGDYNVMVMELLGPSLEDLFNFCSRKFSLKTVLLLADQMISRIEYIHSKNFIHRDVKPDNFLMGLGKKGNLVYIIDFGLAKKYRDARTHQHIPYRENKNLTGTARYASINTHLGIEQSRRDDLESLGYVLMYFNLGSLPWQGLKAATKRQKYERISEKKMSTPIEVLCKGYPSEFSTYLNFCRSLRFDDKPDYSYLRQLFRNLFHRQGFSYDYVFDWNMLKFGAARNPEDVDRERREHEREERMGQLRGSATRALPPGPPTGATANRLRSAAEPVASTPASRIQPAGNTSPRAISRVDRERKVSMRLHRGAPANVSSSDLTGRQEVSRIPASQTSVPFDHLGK
Procedure: (§1) Enzyme inhibition assays were performed using the Luminometer Kinase-GLO® method. Recombinant human enzyme CK-1δ was purchased from Millipore Iberica SAU and recombinant human enzyme CK-1ε was purchased from Invitrogen. The phosphorylation substration chosen was casein. The Luminescent Kinase Kit (catalogue no. V6711) was obtained from Promega. ATP and other reagents were purchased from Sigma-Aldrich (St. Louis, Mo.).
(§2) The assays were conducted in buffer using 96-well plates. In a typical assay: 10 μL of the test compound (dissolved in dimethylsulfoxide at a concentration of 1 mM and, in turn, dissolved in buffer to the required concentration for the experiment) and 10 μL (16 ng) of the CK-1δ enzyme or 10 μL (50 ng) of the CK-1ε enzyme row were added to each well followed by 20 μL of buffer containing 0.1% casein as substrate and 4 μM of ATP. The assay buffer contained: 50 mM HEPES, pH 7.5; 0.01% Brij-35; 10 mM MgCl2; 1 mM EGTA and 0.01% NaN3. […] After incubating for 60 minutes at 30° C., the enzymatic reaction was stopped using 40 μL of Kinase-GLO® reagent. Luminescence was measured after ten minutes using a FLUOstar Optima (BMG Labtechnologies GmbH, Offenburg, Germany) multimode reader. The activity was proportional to the difference between the total and consumed ATP. Inhibition activities were calculated in accordance with the maximum activity measured in the absence of inhibitor. IC50 is defined as the concentration of each compound that reduces enzyme activity by 50% with respect to that obtained without inhibitor.

[2] = biological target: T2, recombinant human enzyme CK-1δ (Homo sapiens, UniProt P48730); experiment: Enzyme inhibition assay, Luminometer Kinase-GLO method, CK-1δ; assay type: biochemical; conditions: for IC50: casein substrate, 4 μM ATP, 60 minutes at 30° C., read-out: Inhibitory Concentration 50 (IC50) CK-1δ
T2 construct: purchased Millipore Iberica SAU
T2 sequence (P48730 whole entry): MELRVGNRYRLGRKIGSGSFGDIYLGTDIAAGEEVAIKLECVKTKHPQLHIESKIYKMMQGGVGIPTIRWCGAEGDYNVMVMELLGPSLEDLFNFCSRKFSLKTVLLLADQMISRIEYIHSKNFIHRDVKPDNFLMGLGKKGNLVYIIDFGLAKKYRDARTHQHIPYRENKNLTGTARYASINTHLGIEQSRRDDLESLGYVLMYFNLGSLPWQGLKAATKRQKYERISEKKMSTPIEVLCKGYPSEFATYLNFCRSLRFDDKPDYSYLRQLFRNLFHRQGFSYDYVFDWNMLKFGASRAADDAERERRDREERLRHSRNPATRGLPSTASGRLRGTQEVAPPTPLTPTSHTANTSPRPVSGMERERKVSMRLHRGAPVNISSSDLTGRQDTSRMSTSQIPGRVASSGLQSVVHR
Procedure: as §1, §2

SMILES	IC50 [1] [nM]	IC50 [2] [nM]	inhibition at 10 µM [1] [%]	inhibition at 10 µM [2] [%]
COc1ccc(CC(=O)Nc2nc3ccc(Cl)cc3s2)cc1 [Compound 2, N-(6-chlorobenzothiazole-2-yl)-2-(4-methoxyphenyl)acetamide]	500	70	–	–
O=C(Cc1ccccc1Cl)Nc1nc2ccc(C(F)(F)F)cc2s1 [Compound 7, N-(6-trifluoromethylbenzothiazole-2-yl)-2-(2-chlorophenyl)acetamide]	7730	68	–	–
O=C(Cc1ccc(Cl)c(Cl)c1)Nc1nc2ccc(C(F)(F)F)cc2s1 [Compound 9, N-(6-trifluoromethylbenzothiazole-2-yl)-2-(3,4-dichlorophenyl)acetamide]	870	56	–	–
COc1cc(CC(=O)Nc2nc3ccc(OC(F)(F)F)cc3s2)cc(OC)c1OC [Compound 11, N-(6-trifluoromethoxybenzothiazole-2-yl)-2-(3,4,5-trimethoxyphenyl)acetamide]	940	79	–	–
O=C(Cc1cccc(C(F)(F)F)c1)Nc1nc2ccc(C(F)(F)F)cc2s1 [Compound 13, N-(6-trifluoromethylbenzothiazole-2-yl)-2-(3-(trifluoromethyl)phenyl)acetamide]	720	87	–	–
O=C(Nc1nc2ccc(C(F)(F)F)cc2s1)C(c1ccccc1)c1ccccc1 [Compound 15, N-(6-trifluoromethylbenzothiazole-2-yl)-2,2-diphenylacetamide]	2750	260	–	–
COc1ccc2nc(NC(=O)C(c3ccccc3)c3ccccc3)sc2c1 [Compound 16, N-(6-methoxybenzothiazole-2-yl)-2,2-diphenylacetamide]	5070	840	–	–
O=C(CCc1ccccc1)Nc1nc2ccc([N+](=O)[O-])cc2s1 [Compound 17, N-(6-nitrobenzothiazole-2-yl)-3-phenylpropanamide]	9400	570	–	–
O=C(Cc1ccc(F)cc1)Nc1nc2ccccc2s1 [Compound 18, N-(benzothiazole-2-yl)-2-(4-fluorophenyl)acetamide]	3080	530	–	–
COc1ccc(CC(=O)Nc2nc3ccc(OC)cc3s2)cc1 [Compound 19, N-(6-methoxybenzothiazole-2-yl)-2-(4-methoxyphenyl)acetamide]	2410	570	–	–
COc1ccc2nc(NC(=O)Cc3ccc(Cl)cc3)sc2c1 [Compound 21, N-(6-methoxybenzothiazole-2-yl)-2-(4-chlorophenyl)acetamide]	8750	750	–	–
COc1ccc2nc(NC(=O)Cc3cccc(Cl)c3)sc2c1 [Compound 22, N-(6-methoxybenzothiazole-2-yl)-2-(3-chlorophenyl)acetamide]	3730	530	–	–
O=C(Cc1cccc(Cl)c1)Nc1nc2ccc(OC(F)(F)F)cc2s1 [Compound 23, N-(6-trifluoromethoxybenzothiazole-2-yl)-2-(3-chlorophenyl)acetamide]	1020	540	–	–
O=C(Nc1cccc(Cl)c1)Nc1nc2ccc(C(F)(F)F)cc2s1 [Compound 24, N-(6-trifluoromethylbenzothiazole-2-yl)-N′-(3-chlorophenyl)urea]	11000	740	–	–
COc1cccc(CC(=O)Nc2nc3ccc(OC)cc3s2)c1 [Compound 25, N-(6-methoxybenzothiazole-2-yl)-2-(3-methoxyphenyl)acetamide]	2430	420	–	–
CCOc1ccc2nc(NC(=O)Cc3cccc(OC)c3)sc2c1 [Compound 26, N-(6-ethoxybenzothiazole-2-yl)-2-(3-methoxyphenyl)acetamide]	8970	990	–	–
COc1ccccc1CC(=O)Nc1nc2ccc(OC(F)(F)F)cc2s1 [Compound 27, N-(6-trifluoromethoxybenzothiazole-2-yl)-2-(2-methoxyphenyl)acetamide]	7390	620	–	–
O=C(Cc1ccc(Cl)c(Cl)c1)Nc1nc2ccc(OC(F)(F)F)cc2s1 [Compound 28, N-(6-trifluoromethoxybenzothiazole-2-yl)-2-(3,4-dichlorophenyl)acetamide]	930	590	–	–
COc1ccc(OC)c(CC(=O)Nc2nc3ccc(C(F)(F)F)cc3s2)c1 [Compound 29, N-(6-trifluoromethylbenzothiazole-2-yl)-2-(2,5-dimethoxyphenyl)acetamide]	3140	190	–	–
COc1ccccc1CC(=O)Nc1nc2ccc(Cl)cc2s1 [Compound 31, N-(6-chlorobenzothiazole-2-yl)-2-(2-methoxyphenyl)acetamide]	1150	320	–	–

SMILES	IC50 [1] [nM]	IC50 [2] [nM]	inhibition at 10 µM [1] [%]	inhibition at 10 µM [2] [%]
COc1ccccc1CC(=O)Nc1nc2ccc(Br)cc2s1 [Compound 32, N-(6-bromobenzothiazole-2-yl)-2-(2-methoxyphenyl)acetamide]	1030	260	–	–
O=C(Nc1nc2ccccc2s1)C(c1ccccc1)c1ccccc1 [Compound 33, N-(benzothiazole-2-yl)-2,2-diphenylacetamide]	7310	1960	–	–
O=C(CC(c1ccccc1)c1ccccc1)Nc1nc2ccccc2s1 [Compound 34, N-(benzothiazole-2-yl)-3,3-diphenylpropanamide]	9730	2500	–	–
O=C(COCc1ccccc1)Nc1nc2ccccc2s1 [Compound 35, N-(benzothiazole-2-yl)-2-benzyloxyacetamide]	–	4370	48	–
O=C(CNC(=O)c1ccccc1)Nc1nc2ccccc2s1 [Compound 36, N-[2-(benzothiazole-2-ylamine)-2-oxoethyl]benzamide]	–	7290	48	–
O=C(CNC(=O)C(c1ccccc1)c1ccccc1)Nc1nc2ccccc2s1 [Compound 37, N-(benzothiazole-2-yl)-2-(2,2-diphenylacetamide)acetamide]	13000	1930	–	–
O=C(Cc1ccccc1)NCC(=O)Nc1nc2ccccc2s1 [Compound 38, N-(benzothiazole-2-yl)-2-(2-phenylacetamide)acetamide]	–	6330	37	–
CCOc1ccc2nc(NC(=O)C(c3ccccc3)c3ccccc3)sc2c1 [Compound 39, N-(6-ethoxybenzothiazole-2-yl)-2,2-diphenylacetamide]	7860	2820	–	–
CCOC(=O)c1ccc2nc(NC(=O)C(c3ccccc3)c3ccccc3)sc2c1 [Compound 40, Carboxylate[2-(2,2-diphenylacetamide)benzothiazole-6-yl]ethyl]	1600	6680	–	–
NS(=O)(=O)c1ccc2nc(NC(=O)C(c3ccccc3)c3ccccc3)sc2c1 [Compound 41, N-(6-sulfamoylbenzothiazole-2-yl)-2,2-diphenylacetamide]	–	–	10	10
CCNS(=O)(=O)c1ccc2nc(NC(=O)C(c3ccccc3)c3ccccc3)sc2c1 [Compound 42, N-(6-(N-ethylsulfamoyl)benzothiazole-2-yl)-2,2-diphenylacetamide]	–	–	10	10
CCCCNS(=O)(=O)c1ccc2nc(NC(=O)C(c3ccccc3)c3ccccc3)sc2c1 [Compound 43, N-(6-(N-butylsulfamoyl)benzothiazole-2-yl)-2,2-diphenylacetamide]	–	–	10	10
CCN(CC)S(=O)(=O)c1ccc2nc(NC(=O)C(c3ccccc3)c3ccccc3)sc2c1 [Compound 44, N-(6-(N,N-diethylsulfamoyl)benzothiazole-2-yl)-2,2-diphenylacetamide]	3470	9830	–	–
CCOc1ccc2nc(NC(=O)Cc3ccc(OC)cc3)sc2c1 [Compound 45, N-(6-ethoxybenzothiazole-2-yl)-2-(4-methoxyphenyl)acetamide]	9490	1090	–	–
COc1ccc(NC(=O)Nc2nc3ccc(C(F)(F)F)cc3s2)cc1 [Compound 46, N-(6-trifluoromethylbenzothiazole-2-yl)-N′-(4-methoxyphenyl)urea]	–	5500	29	–
O=C(CCc1cccc(Cl)c1)Nc1nc2ccccc2s1 [Compound 47, N-(benzothiazole-2-yl)-3-(3-chlorophenyl)propanamide]	–	3580	31	–
CCOc1ccc2nc(NC(=O)Cc3cccc(Cl)c3)sc2c1 [Compound 48, N-(6-ethoxybenzothiazole-2-yl)-2-(3-chlorophenyl)acetamide]	9750	1210	–	–
COc1ccc2nc(NC(=O)Cc3ccccc3Cl)sc2c1 [Compound 49, N-(6-methoxybenzothiazole-2-yl)-2-(2-chlorophenyl)acetamide]	–	9710	30	–
CCOc1ccc2nc(NC(=O)Cc3ccccc3Cl)sc2c1 [Compound 50, N-(6-ethoxybenzothiazole-2-yl)-2-(2-chlorophenyl)acetamide]	–	17400	20	–
